Earlier results on 1 compound are cited in patent publication US11298325B2, “Pharmaceutical compositions of pimobendan” (Boehringer Ingelheim Vetmedica GmbH, priority 2013, dated 2022).

The conditions of data set [1]: pH 5.
The conditions of data set [2]: low solubility and low permeability.

As for `COc1ccc(-c2nc3ccc(C4=NNC(=O)CC4C)cc3[nH]2)cc1` (centres unmarked) [pimobendan], the Solubility in water entry in data set [1] was “about 1 mg/liter”. In data set [2], the “Class in the Biopharmaceutics Classification Systems” value is listed as “Class IV”.
